# Measurements as given in paper PMC9095466 (Nature, 2022).
# Several values for one entry are separate records, joined by “and”; a condition that tells them apart may be missing. Equal entries are not always repeated. Where two headings read alike, the source gives them in different places.
# Legend:
# SARS-CoV-2 (VIDO) = type: cell-based; design: plaque assay titre, Figure 2c: unit not given beside the values; conditions: for reduction of viral titre (plaque assay): supernatant of infected Calu-3 cells, vs DMSO-treated infected control; for plaque assay titre, Figure 2c: replicate columns
# SARS-CoV-2 P.1 (Gamma) = experiment: microbe, parasite or virus in culture; type: cell-based; conditions: Brazil
structure (smiles),measurement,setting,value
"CS(=O)(=O)NC(CCC(N)=O)C(=O)NC(Cc1ccccc1)C(=O)NC(CCCNC(=N)N)C(=O)c1nc2ccccc2s1 (centres unmarked) [Compound N-0385, Ms-QFR-kbt]",reduction of viral titre (plaque assay),SARS-CoV-2 (VIDO); 40 nM,~2 log
same,"plaque assay titre, Figure 2c",SARS-CoV-2 (VIDO); 40 nM,1000 (11×) and 22000 (2×) and 33000 and 132000 and 10000 (2×) and 33333
same,reduction of viral titre (plaque assay),SARS-CoV-2 (VIDO); 200 nM,~2 log
same,"plaque assay titre, Figure 2c",SARS-CoV-2 (VIDO); 200 nM,1000 (8×) and 10000 (6×) and 20000 (2×) and 11111 and 40000 and 30000
same,"infection, dose response Figure 3c (nucleocapsid)",SARS-CoV-2 P.1 (Gamma); log [C] (nM) 0.20412,100 and 81.7088 and 65.1564
same,"infection, dose response Figure 3d (dsRNA)",SARS-CoV-2 P.1 (Gamma); log [C] (nM) 0.20412,75.4607 and 65.7035 and 100 and 82.6067
same,"infection, dose response Figure 3d (dsRNA)",SARS-CoV-2 P.1 (Gamma); log [C] (nM) 3,8.633
same,"infection, dose response Figure 3c (nucleocapsid)",SARS-CoV-2 P.1 (Gamma); log [C] (nM) -0.49485,100 and 84.3433
same,"infection, dose response Figure 3d (dsRNA)",SARS-CoV-2 P.1 (Gamma); log [C] (nM) -0.49485,100 and 92.9624 and 97.3601
same,"infection, dose response Figure 3c (nucleocapsid)",SARS-CoV-2 P.1 (Gamma); log [C] (nM) -1.19382,91.5649 and 100 and 99.1769
same,"infection, dose response Figure 3d (dsRNA)",SARS-CoV-2 P.1 (Gamma); log [C] (nM) -1.19382,98.3176 and 96.7175 and 100 and 97.435
